Results from BindingDB's records for doi:10.1016/j.ejmech.2015.10.042 (China Pharmaceutical University, 2016).

Test: Agonist activity at vitamin D3 receptor in human HL-60 cells assessed as induction of cell differentiation after 96 hrs by NBT dye-based microscopic analysis

Compared with `CCN(CC)CCNC(=O)c1ccc(C(CC)(CC)c2ccc(OCC(O)C(C)(C)C)c(C)c2)n1CC` (stereo unspecified), `CCN(CC)CCCNC(=O)c1ccc(C(CC)(CC)c2ccc(OCC(O)C(C)(C)C)c(C)c2)n1CC` (stereo unspecified) is 1.7-fold lower in EC50: 110 nM for the first, 66 nM for the second. The second is the more potent here.

Going from `CCn1c(C(=O)N[C@@H](C)CO)ccc1C(CC)(CC)c1ccc(OCC(O)C(C)(C)C)c(C)c1` (stereo partly specified) to `C#CCNC(=O)c1ccc(C(CC)(CC)c2ccc(OCC(O)C(C)(C)C)c(C)c2)n1CC` (stereo unspecified), the EC50 rises from 8.5 nM to 240 nM (28-fold).

Compared with `C=CCN(C)C(=O)c1ccc(C(CC)(CC)c2ccc(OCC(=O)C(C)(C)C)c(C)c2)n1CC`, `CCn1c(C(=O)N(C)CC(=O)O)ccc1C(CC)(CC)c1ccc(OCC(=O)C(C)(C)C)c(C)c1` is 16-fold lower in EC50: 21600 nM for the first, 1390 nM for the second.

Compared with `CCN(CC)CCNC(=O)c1ccc(C(CC)(CC)c2ccc(OCC(=O)C(C)(C)C)c(C)c2)n1CC`, `CCN(CC)CCCNC(=O)c1ccc(C(CC)(CC)c2ccc(OCC(=O)C(C)(C)C)c(C)c2)n1CC` is 4.1-fold lower in EC50: 91 nM for the first, 22 nM for the second. The second is the more potent here.

Compared with `CCOC(=O)c1ccc(OC(=O)c2ccc(C(CC)(CC)c3ccc(OCC(=O)C(C)(C)C)c(C)c3)n2CC)cc1`, `CCOC(=O)c1ccc(OC(=O)c2ccc(C(CC)(CC)c3ccc(OCC(O)C(C)(C)C)c(C)c3)n2CC)cc1` (stereo unspecified) is higher in EC50: 45600 nM for the first, over 50000 nM for the second. The first is the more potent here.

`CCn1c(C(=O)Nc2ccc(OC(F)(F)F)cc2)ccc1C(CC)(CC)c1ccc(OCC(O)C(C)(C)C)c(C)c1` (stereo unspecified) and `CCn1c(C(=O)Nc2ccc(OC(F)(F)F)cc2)ccc1C(CC)(CC)c1ccc(OCC(=O)C(C)(C)C)c(C)c1` cannot be ordered by EC50: over 50000 nM for the first, over 50000 nM for the second.

`CCn1c(C(=O)Nc2cccc(C(F)(F)F)c2)ccc1C(CC)(CC)c1ccc(OCC(O)C(C)(C)C)c(C)c1` (stereo unspecified) and `CCn1c(C(=O)Nc2cccc(C(F)(F)F)c2)ccc1C(CC)(CC)c1ccc(OCC(=O)C(C)(C)C)c(C)c1` cannot be ordered by EC50: over 50000 nM for the first, over 50000 nM for the second.

First: CCOc1ccc(NC(=O)c2ccc(C(CC)(CC)c3ccc(OCC(O)C(C)(C)C)c(C)c3)n2CC)cc1 (stereo unspecified)
Second: CCOc1ccc(NC(=O)c2ccc(C(CC)(CC)c3ccc(OCC(=O)C(C)(C)C)c(C)c3)n2CC)cc1
The EC50 of the first is lower: 630 nM for the first, over 50000 nM for the second.

Going from `CCn1c(C(=O)Oc2ccc(CCO)cc2)ccc1C(CC)(CC)c1ccc(OCC(O)C(C)(C)C)c(C)c1` (stereo unspecified) to `CCn1c(C(=O)OCc2ccc(F)cc2)ccc1C(CC)(CC)c1ccc(OCC(O)C(C)(C)C)c(C)c1` (stereo unspecified), the EC50 rises from 5100 nM to over 50000 nM. The first is the more potent here.

`CCn1c(C(=O)NCC(OC)OC)ccc1C(CC)(CC)c1ccc(OCC(O)C(C)(C)C)c(C)c1` (stereo unspecified) and `CCn1c(C(=O)NCC(OC)OC)ccc1C(CC)(CC)c1ccc(OCC(=O)C(C)(C)C)c(C)c1` are within 1.5-fold of each other in EC50: 150 nM for the first, 130 nM for the second.

First: CCn1c(C(=O)NCCCN2CCOCC2)ccc1C(CC)(CC)c1ccc(OCC(O)C(C)(C)C)c(C)c1 (stereo unspecified)
Second: CCn1c(C(=O)NCCCN2CCOCC2)ccc1C(CC)(CC)c1ccc(OCC(=O)C(C)(C)C)c(C)c1
The EC50 of the first is 13-fold lower: 18 nM for the first, 240 nM for the second.

Compared with `CCn1c(C(=O)NCCN)ccc1C(CC)(CC)c1ccc(OCC(O)C(C)(C)C)c(C)c1` (stereo unspecified), `CCn1c(C(=O)NCCBr)ccc1C(CC)(CC)c1ccc(OCC(O)C(C)(C)C)c(C)c1` (stereo unspecified) is 13-fold higher in EC50: 10 nM for the first, 130 nM for the second. The first is the more potent here.

Compared with `CCn1c(C(=O)N(C)c2ccccc2)ccc1C(CC)(CC)c1ccc(OCC(O)C(C)(C)C)c(C)c1` (stereo unspecified), `CCn1c(C(=O)N(C)c2ccccc2)ccc1C(CC)(CC)c1ccc(OCC(=O)C(C)(C)C)c(C)c1` is 2.9-fold higher in EC50: 6400 nM for the first, 18500 nM for the second. The first is the more potent here.

`C#CC(C)OC(=O)c1ccc(C(CC)(CC)c2ccc(OCC(O)C(C)(C)C)c(C)c2)n1CC` (stereo unspecified) and `C#CC(C)OC(=O)c1ccc(C(CC)(CC)c2ccc(OCC(=O)C(C)(C)C)c(C)c2)n1CC` (stereo unspecified) are within 1.5-fold of each other in EC50: 200 nM for the first, 210 nM for the second.

Going from `C#CCCOC(=O)c1ccc(C(CC)(CC)c2ccc(OCC(O)C(C)(C)C)c(C)c2)n1CC` (stereo unspecified) to `C#CCCOC(=O)c1ccc(C(CC)(CC)c2ccc(OCC(=O)C(C)(C)C)c(C)c2)n1CC`, the EC50 rises from 1030 nM to 28800 nM (28-fold). The first is the more potent here.

First: CC[C@@H](C)[C@H](NC(=O)c1ccc(C(CC)(CC)c2ccc(OCC(=O)C(C)(C)C)c(C)c2)n1CC)C(=O)O
Second: CC[C@@H](C)[C@H](NC(=O)c1ccc(C(CC)(CC)c2ccc(OCC(=O)C(C)(C)C)c(C)c2)n1CC)C(=O)OC
The EC50 of the first is 59-fold lower: 10 nM for the first, 590 nM for the second.

Compared with `CCn1c(C(=O)N(C)CC(=O)O)ccc1C(CC)(CC)c1ccc(OCC(O)C(C)(C)C)c(C)c1` (stereo unspecified), `CCOC(=O)CN(C)C(=O)c1ccc(C(CC)(CC)c2ccc(OCC(O)C(C)(C)C)c(C)c2)n1CC` (stereo unspecified) is 3.5-fold lower in EC50: 740 nM for the first, 210 nM for the second.

First: CCn1c(C(=O)NCCCN(C)C)ccc1C(CC)(CC)c1ccc(OCC(O)C(C)(C)C)c(C)c1 (stereo unspecified)
Second: CCn1c(C(=O)NCCN(C)C)ccc1C(CC)(CC)c1ccc(OCC(O)C(C)(C)C)c(C)c1 (stereo unspecified)
The EC50 of the first is 2.6-fold higher: 37 nM for the first, 14 nM for the second.

Compared with `CC[C@@H](C)[C@H](NC(=O)c1ccc(C(CC)(CC)c2ccc(OCC(O)C(C)(C)C)c(C)c2)n1CC)C(=O)O` (stereo partly specified), `CC[C@@H](C)[C@H](NC(=O)c1ccc(C(CC)(CC)c2ccc(OCC(O)C(C)(C)C)c(C)c2)n1CC)C(=O)OC` (stereo partly specified) is 11-fold higher in EC50: 2.3 nM for the first, 26 nM for the second.

`CCOC(=O)CN(C)C(=O)c1ccc(C(CC)(CC)c2ccc(OCC(=O)C(C)(C)C)c(C)c2)n1CC` and `CCOC(=O)CC(C)OC(=O)c1ccc(C(CC)(CC)c2ccc(OCC(=O)C(C)(C)C)c(C)c2)n1CC` (stereo unspecified) cannot be ordered by EC50: over 50000 nM for the first, over 50000 nM for the second.

Compared with `CCn1c(C(=O)N(C)CCC#N)ccc1C(CC)(CC)c1ccc(OCC(=O)C(C)(C)C)c(C)c1`, `CCn1c(C(=O)N(C)CCC#N)ccc1C(CC)(CC)c1ccc(OCC(O)C(C)(C)C)c(C)c1` (stereo unspecified) is 5-fold lower in EC50: 9800 nM for the first, 1960 nM for the second.

`CCn1c(C(=O)OCc2ccccn2)ccc1C(CC)(CC)c1ccc(OCC(=O)C(C)(C)C)c(C)c1` and `CCn1c(C(=O)OCc2ccccn2)ccc1C(CC)(CC)c1ccc(OCC(O)C(C)(C)C)c(C)c1` (stereo unspecified) cannot be ordered by EC50: over 50000 nM for the first, over 50000 nM for the second.

`CCn1c(C(=O)NCCN(C)C)ccc1C(CC)(CC)c1ccc(OCC(=O)C(C)(C)C)c(C)c1` and `CCn1c(C(=O)NCCCN(C)C)ccc1C(CC)(CC)c1ccc(OCC(=O)C(C)(C)C)c(C)c1` are within 1.5-fold of each other in EC50: 77 nM for the first, 96 nM for the second.

Going from `CCn1c(C(=O)OC(C)CCO)ccc1C(CC)(CC)c1ccc(OCC(=O)C(C)(C)C)c(C)c1` (stereo unspecified) to `CCn1c(C(=O)NCCBr)ccc1C(CC)(CC)c1ccc(OCC(=O)C(C)(C)C)c(C)c1`, the EC50 rises from 380 nM to 1900 nM (5-fold).

Compared with `CCn1c(C(=O)OCc2ccc(F)cc2)ccc1C(CC)(CC)c1ccc(OCC(=O)C(C)(C)C)c(C)c1`, `CCn1c(C(=O)Oc2ccc(CC(=O)OC)cc2)ccc1C(CC)(CC)c1ccc(OCC(=O)C(C)(C)C)c(C)c1` is 4.1-fold lower in EC50: 9500 nM for the first, 2320 nM for the second. The second is the more potent here.

Going from `C=CCN(C)C(=O)c1ccc(C(CC)(CC)c2ccc(OCC(O)C(C)(C)C)c(C)c2)n1CC` (stereo unspecified) to `CCn1c(C(=O)N(CCC#N)CCC#N)ccc1C(CC)(CC)c1ccc(OCC(O)C(C)(C)C)c(C)c1` (stereo unspecified), the EC50 falls from 3950 nM to 97 nM (41-fold).

Compared with `CCn1c(C(=O)NCCN)ccc1C(CC)(CC)c1ccc(OCC(=O)C(C)(C)C)c(C)c1`, `C#CCNC(=O)c1ccc(C(CC)(CC)c2ccc(OCC(=O)C(C)(C)C)c(C)c2)n1CC` is 18-fold higher in EC50: 120 nM for the first, 2200 nM for the second. The first is the more potent here.

`CCn1c(C(=O)N(CCC#N)CCC#N)ccc1C(CC)(CC)c1ccc(OCC(=O)C(C)(C)C)c(C)c1` and `CCC(CC)(c1ccc(OCC(=O)C(C)(C)C)c(C)c1)c1ccc(OCC(=O)C(C)(C)C)c(C)c1` [LG190155] are within 1.5-fold of each other in EC50: 870 nM for the first, 590 nM for the second.
